Measured values reported in PubChem BioAssay AID2060624 (Molecular Pharmacology Branch, DTP, NCI, 2025).

Test system: 217524-143-R1-J4-PDC spheroids with HUVEC/MSC, viability
Experiment: Anticancer human tumor 217524-143-R1-J4-PDC patient-derived pancreatic carcinoma cell line growth inhibition [CLK]
Conditions: for IC50: curve of first compound; for viability, T/C: stronger effect = lower value
How it was run: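 Patient-derived tumor cells grown as complex spheroids with HUVEC endothelial cells and mesenchymal stem cells, treated with drug combinations. Concentrations descend in half-log steps from near clinical Cmax, or from 10 microM if Cmax unknown.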

[1] = second compound 0.0316 µM, first compound 0.0316 µM
[2] = second compound 0.0316 µM, first compound 0.1 µM
[3] = second compound 0.0316 µM, first compound 0.316 µM
[4] = second compound 0.0316 µM, first compound 1 µM
[5] = second compound 0.0316 µM, first compound 3.16 µM
[6] = second compound 0.0316 µM, first compound 10 µM
[7] = second compound 0.1 µM, first compound 0.0316 µM
[8] = second compound 0.1 µM, first compound 0.1 µM
[9] = second compound 0.1 µM, first compound 0.316 µM
[10] = second compound 0.1 µM, first compound 1 µM
[11] = second compound 0.1 µM, first compound 3.16 µM
[12] = second compound 0.1 µM, first compound 10 µM
[13] = second compound 0.316 µM, first compound 0.0316 µM
[14] = second compound 0.316 µM, first compound 0.1 µM
[15] = second compound 0.316 µM, first compound 0.316 µM
[16] = second compound 0.316 µM, first compound 1 µM
[17] = second compound 0.316 µM, first compound 3.16 µM
[18] = second compound 0.316 µM, first compound 10 µM
[19] = second compound 1 µM, first compound 0.0316 µM
[20] = second compound 1 µM, first compound 0.1 µM
[21] = second compound 1 µM, first compound 0.316 µM
[22] = second compound 1 µM, first compound 1 µM
[23] = second compound 1 µM, first compound 3.16 µM
[24] = second compound 1 µM, first compound 10 µM
[25] = second compound 3.16 µM, first compound 0.0316 µM
[26] = second compound 3.16 µM, first compound 0.1 µM
[27] = second compound 3.16 µM, first compound 0.316 µM
[28] = second compound 3.16 µM, first compound 1 µM
[29] = second compound 3.16 µM, first compound 3.16 µM
[30] = second compound 3.16 µM, first compound 10 µM
[31] = second compound 10 µM, first compound 0.0316 µM
[32] = second compound 10 µM, first compound 0.1 µM
[33] = second compound 10 µM, first compound 0.316 µM
[34] = second compound 10 µM, first compound 1 µM
[35] = second compound 10 µM, first compound 3.16 µM
[36] = second compound 10 µM, first compound 10 µM
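Note: spheroids exposed to agents for seven days before reading.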
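Throughout, for viability, T/C: 100% = DMSO vehicle control viability.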

`C#Cc1c(F)ccc2cc(O)cc(-c3ncc4c(N5CC6CCC(C5)N6)nc(OCC56CCCN5CC(F)C6)nc4c3F)c12` (stereo not drawn) + CNC(=O)c1ccc(Nc2nc(OC3CCCC3)c3c(-c4ccc5nc(C)oc5c4)c[nH]c3n2)c(OC)c1 was tested, and the IC50 (second compound 0.0316 µM) was over 10000 nM, the IC50 (second compound 0.1 µM) was under 31.6 nM and the IC50 (second compound 0.316 µM) was under 31.6 nM. It also gave an IC50 (second compound 1 µM) of under 31.6 nM, an IC50 (second compound 3.16 µM) of under 31.6 nM and an IC50 (second compound 10 µM) of under 31.6 nM. The viability, T/C [1] was 84.3%, the viability, T/C [2] was 98.2% and the viability, T/C [3] was 90.8%. For the same compound, the viability, T/C [4] was 101%, the viability, T/C [5] was 89.4% and the viability, T/C [6] was 69%. It also gave a viability, T/C [7] of 47.5%, a viability, T/C [8] of 39.2% and a viability, T/C [9] of 53.6%. The viability, T/C [10] was 42.4%, the viability, T/C [11] was 44.5% and the viability, T/C [12] was 30.8%. It also gave a viability, T/C [13] of 38.5%, a viability, T/C [14] of 50.3% and a viability, T/C [15] of 38.2%. It also gave a viability, T/C [16] of 40.9%, a viability, T/C [17] of 38.7% and a viability, T/C [18] of 24.3%. The viability, T/C [19] was 33.1%, the viability, T/C [20] was 30% and the viability, T/C [21] was 26.1%. It also gave a viability, T/C [22] of 35.5%, a viability, T/C [23] of 24.5% and a viability, T/C [24] of 18.9%. For the same compound, the viability, T/C [25] was 29.1%, the viability, T/C [26] was 29.5% and the viability, T/C [27] was 32.6%. It also gave a viability, T/C [28] of 26.7%, a viability, T/C [29] of 26.2% and a viability, T/C [30] of 19.4%. The viability, T/C [31] was 26.3%, the viability, T/C [32] was 24.2% and the viability, T/C [33] was 27.8%. For the same compound, the viability, T/C [34] was 23.4%, the viability, T/C [35] was 24.9% and the viability, T/C [36] was 19.7%.

Work on `C=C(F)C(=O)N1CCN(c2nc(OCC3CCCN3C)nc3c2CCN(c2cccc4cccc(Cl)c24)C3)CC1CC#N` (stereo not drawn) + CNC(=O)c1ccc(Nc2nc(OC3CCCC3)c3c(-c4ccc5nc(C)oc5c4)c[nH]c3n2)c(OC)c1 yielded an IC50 (second compound 0.0316 µM) of 5260 nM, an IC50 (second compound 0.1 µM) of under 31.6 nM and an IC50 (second compound 0.316 µM) of under 31.6 nM. The IC50 (second compound 1 µM) was under 31.6 nM, the IC50 (second compound 3.16 µM) was under 31.6 nM and the IC50 (second compound 10 µM) was under 31.6 nM. For the same compound, the viability, T/C [1] was 80.1%, the viability, T/C [2] was 77.7% and the viability, T/C [3] was 97.1%. The viability, T/C [4] was 85.7%, the viability, T/C [5] was 104% and the viability, T/C [6] was 0.48%. The viability, T/C [7] was 46.5%, the viability, T/C [8] was 43% and the viability, T/C [9] was 34.7%. It also gave a viability, T/C [10] of 45.3%, a viability, T/C [11] of 37.9% and a viability, T/C [12] of 0.82%. The viability, T/C [13] was 39.3%, the viability, T/C [14] was 42.9% and the viability, T/C [15] was 41.9%. For the same compound, the viability, T/C [16] was 28.2%, the viability, T/C [17] was 28.2% and the viability, T/C [18] was 1.22%. For the same compound, the viability, T/C [19] was 32.5%, the viability, T/C [20] was 33.8% and the viability, T/C [21] was 30.9%. It also gave a viability, T/C [22] of 23.4%, a viability, T/C [23] of 21.8% and a viability, T/C [24] of 0.35%. For the same compound, the viability, T/C [25] was 27.8%, the viability, T/C [26] was 40.8% and the viability, T/C [27] was 25.6%. For the same compound, the viability, T/C [28] was 23.8%, the viability, T/C [29] was 19.6% and the viability, T/C [30] was 0.34%. For the same compound, the viability, T/C [31] was 26.5%, the viability, T/C [32] was 22.6% and the viability, T/C [33] was 27.6%. The viability, T/C [34] was 25.4%, the viability, T/C [35] was 18.5% and the viability, T/C [36] was 0.42%.

Compound `C=CC(=O)N1CCN(c2nc(=O)n(-c3c(C)ccnc3C(C)C)c3nc(-c4c(O)cccc4F)c(F)cc23)C(C)C1` (stereo not drawn) + CNC(=O)c1ccc(Nc2nc(OC3CCCC3)c3c(-c4ccc5nc(C)oc5c4)c[nH]c3n2)c(OC)c1 has an IC50 (second compound 0.0316 µM) of over 10000 nM, an IC50 (second compound 0.1 µM) of under 31.6 nM and an IC50 (second compound 0.316 µM) of under 31.6 nM. The IC50 (second compound 1 µM) was under 31.6 nM, the IC50 (second compound 3.16 µM) was under 31.6 nM and the IC50 (second compound 10 µM) was under 31.6 nM. For the same compound, the viability, T/C [1] was 99.7%, the viability, T/C [2] was 96.5% and the viability, T/C [3] was 82.2%. For the same compound, the viability, T/C [4] was 102%, the viability, T/C [5] was 123% and the viability, T/C [6] was 118%. For the same compound, the viability, T/C [7] was 44.1%, the viability, T/C [8] was 47.4% and the viability, T/C [9] was 41.4%. For the same compound, the viability, T/C [10] was 49.9%, the viability, T/C [11] was 58.5% and the viability, T/C [12] was 55.8%. It also gave a viability, T/C [13] of 34.6%, a viability, T/C [14] of 31.3% and a viability, T/C [15] of 50.8%. It also gave a viability, T/C [16] of 41.4%, a viability, T/C [17] of 49% and a viability, T/C [18] of 43.4%. It also gave a viability, T/C [19] of 24.7%, a viability, T/C [20] of 27.6% and a viability, T/C [21] of 32.8%. It also gave a viability, T/C [22] of 39.2%, a viability, T/C [23] of 36.4% and a viability, T/C [24] of 30%. For the same compound, the viability, T/C [25] was 24.9%, the viability, T/C [26] was 29.8% and the viability, T/C [27] was 31%. It also gave a viability, T/C [28] of 30.2%, a viability, T/C [29] of 36.8% and a viability, T/C [30] of 27.9%. The viability, T/C [31] was 27.9%, the viability, T/C [32] was 27.9% and the viability, T/C [33] was 31.7%. The viability, T/C [34] was 31.9%, the viability, T/C [35] was 34.2% and the viability, T/C [36] was 29.1%.

`COC1C=CCC(C)C(C)S(=O)(=O)NC(=O)c2ccc3c(c2)N(CC2CCC21)CC1(CCCc2cc(Cl)ccc21)CO3` (stereo not drawn) + CNC(=O)c1ccc(Nc2nc(OC3CCCC3)c3c(-c4ccc5nc(C)oc5c4)c[nH]c3n2)c(OC)c1 gave an IC50 (second compound 0.0316 µM) of 7690 nM, an IC50 (second compound 0.1 µM) of under 31.6 nM and an IC50 (second compound 0.316 µM) of under 31.6 nM. The IC50 (second compound 1 µM) was under 31.6 nM, the IC50 (second compound 3.16 µM) was under 31.6 nM and the IC50 (second compound 10 µM) was under 31.6 nM. It also gave a viability, T/C [1] of 83.2%, a viability, T/C [2] of 91.3% and a viability, T/C [3] of 95.8%. The viability, T/C [4] was 114%, the viability, T/C [5] was 108% and the viability, T/C [6] was 35.6%. It also gave a viability, T/C [7] of 46.6%, a viability, T/C [8] of 43.9% and a viability, T/C [9] of 72.9%. It also gave a viability, T/C [10] of 75.3%, a viability, T/C [11] of 91.2% and a viability, T/C [12] of 33.1%. The viability, T/C [13] was 34.2%, the viability, T/C [14] was 38.8% and the viability, T/C [15] was 39.4%. For the same compound, the viability, T/C [16] was 29.6%, the viability, T/C [17] was 31.9% and the viability, T/C [18] was 33.7%. For the same compound, the viability, T/C [19] was 30.1%, the viability, T/C [20] was 29.3% and the viability, T/C [21] was 27.4%. The viability, T/C [22] was 22.1%, the viability, T/C [23] was 20.9% and the viability, T/C [24] was 24.2%. For the same compound, the viability, T/C [25] was 26.9%, the viability, T/C [26] was 25.1% and the viability, T/C [27] was 22.3%. The viability, T/C [28] was 20.6%, the viability, T/C [29] was 23.5% and the viability, T/C [30] was 23.9%. The viability, T/C [31] was 29.8%, the viability, T/C [32] was 21% and the viability, T/C [33] was 17.9%. For the same compound, the viability, T/C [34] was 18.5%, the viability, T/C [35] was 17.5% and the viability, T/C [36] was 22.3%.
